Calls of active or inactive are those of the source. No cut-off for these calls is given here.
Assays:
BNL CL.2 [1] = test: Effect of ROS generation in cisplatin induced hepatotoxicity in mouse BNL CL.2 cells assessed as increase in ROS level treated at 40 uM for 24 hrs (reference value: 83%); type: functional
BNL CL.2 [2] = test: Upregulation of NOTUM mRNA expression in mouse […] cells; type: functional, cell-based
BNL CL.2 [3] = test: Effect of ROS generation in cisplatin induced hepatotoxicity in mouse BNL CL.2 NRF2 knockout cells assessed as increase in ROS level treated at 40 uM for 24 hrs (reference value: 93.8%); type: functional
Mus musculus [4] = test: Hepatoprotective activity against cisplatin induced liver injury […] mouse model assessed as rescue of hepatocellular edema at 40 mg/kg, ip administered every 24 hrs for 72 hrs; type: functional, organism-based
BNL CL.2 [5] = test: Upregulation of ARSG mRNA expression in mouse […] CL.2 cells; type: functional, cell-based
BNL CL.2 [6] = test: Upregulation of […] mRNA expression in mouse […] CL.2 cells; type: functional, cell-based
BNL CL.2 [7] = test: Effect on p62 level in mouse BNL CL.2 NRF2 knockout cells assessed as increase in protein level treated at 40 uM for 24 hrs by immunoblot analysis; type: functional, cell-based
[8] = molecular target: T1, Nuclear factor erythroid 2-related factor 2 (Mus musculus) (UniProt Q60795); test: Activation of NRF2 in mouse BNL CL.2 cells assessed as increase in Gclm gene level upto 40 uM incubated upto 24 hrs by rt-qPCR analysis; type: cell-based; details: filed as activator
T1 sequence (whole entry): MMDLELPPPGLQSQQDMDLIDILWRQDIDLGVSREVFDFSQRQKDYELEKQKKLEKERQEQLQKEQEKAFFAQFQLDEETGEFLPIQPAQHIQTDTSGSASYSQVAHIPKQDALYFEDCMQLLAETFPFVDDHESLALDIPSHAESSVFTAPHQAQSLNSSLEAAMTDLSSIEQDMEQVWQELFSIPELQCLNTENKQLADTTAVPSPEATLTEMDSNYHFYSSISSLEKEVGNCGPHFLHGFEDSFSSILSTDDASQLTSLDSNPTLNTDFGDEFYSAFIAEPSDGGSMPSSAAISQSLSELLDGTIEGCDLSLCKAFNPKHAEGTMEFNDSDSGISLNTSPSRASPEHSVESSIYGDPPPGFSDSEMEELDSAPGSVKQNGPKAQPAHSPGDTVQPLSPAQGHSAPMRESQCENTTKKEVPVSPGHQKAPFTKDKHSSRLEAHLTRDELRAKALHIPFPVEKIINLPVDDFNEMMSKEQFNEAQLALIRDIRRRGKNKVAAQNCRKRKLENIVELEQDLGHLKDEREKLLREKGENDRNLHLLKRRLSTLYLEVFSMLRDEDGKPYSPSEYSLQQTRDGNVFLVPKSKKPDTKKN

BNL CL.2 [9] = test: Effect of ROS generation in mouse BNL CL.2 cells incubated at 40 uM for 24 hrs (reference value: 9.42%); type: functional
BNL CL.2 [10] = test: Inhibition of autophagy in mouse BNL CL.2 cells assessed as suppression of autophagosome formation by measuring reduction in yellow puncta incubated upto 80 uM for 24 hrs by immuno fluoroscence analysis; type: functional, cell-based
BNL CL.2 [11] = test: Inhibition of autophagy in mouse BNL CL.2 cells assessed as suppression of autophagosome formation by measuring reduction in red puncta incubated upto 80 uM for 24 hrs by immuno fluoroscence analysis; type: functional, cell-based
BNL CL.2 [12] = test: Upregulation of DYNLT1 mRNA expression in mouse […] cells; type: functional, cell-based
BNL CL.2 [13] = test: Effect of ROS generation in mouse BNL CL.2 cells incubated at 20 uM for 24 hrs (reference value: 9.42%); type: functional
[14] = molecular target: T1, Nuclear factor erythroid 2-related factor 2 (Mus musculus); test: Binding affinity to Flag-tagged NRF2 in mouse BNL CL.2 cells assessed as increase in protein half life treated upto 45 mins with compound; type: cell-based; details: filed as activator
[15] = molecular target: T1, Nuclear factor erythroid 2-related factor 2 (Mus musculus); test: Activation of NRF2 in mouse BNL CL.2 cells assessed as increase in Hmox1 gene level upto 40 uM incubated upto 24 hrs by rt-qPCR analysis; type: cell-based; details: filed as activator
BNL CL.2 [16] = test: Effect of ROS generation in mouse BNL CL.2 cells assessed as increase in ROS level treated at 40 uM for 24 hrs (reference value: 8.04%); type: functional
Mus musculus [17] = test: In vivo activation of NRF2 in C57BL/6J mouse liver assessed as upregulation of NRF2 level administered at 40 mg/kg, ip 3 times in a day by immunohistochemistry analysis; type: functional, organism-based; details: filed as activator, time 1.0 day
Mus musculus [18] = test: Hepatoprotective activity against cisplatin induced liver injury […] mouse model assessed as increase of NRF2 expression in liver tissue at 40 mg/kg, ip administered every 24 hrs for 72 hrs by IHC staining analysis; type: functional, organism-based
Mus musculus [19] = test: Hepatoprotective activity against cisplatin induced liver injury […] mouse model assessed as reduction of MDA in liver tissue at 40 mg/kg, ip administered every 24 hrs for 72 hrs; type: functional, organism-based
BNL CL.2 [20] = test: Inhibition of autophagy in mouse BNL CL.2 cells assessed as increase in p62 level incubated upto 80 uM for 24 hrs by immunoblotting analysis; type: functional, cell-based
[21] = molecular target: T1, Nuclear factor erythroid 2-related factor 2 (Mus musculus); test: Activation of flag-tagged NRF2 in mouse BNL CL.2 cells in presence of wildtype His-tagged KEAP1 at 40 uM for 24 hrs followed by treatment with MG132 for 4 hrs by immunoblot assay; type: cell-based; details: filed as activator
Mus musculus [22] = test: Hepatoprotective activity against cisplatin induced liver injury […] mouse model assessed as rescue of disorder arrangement of hepatic cord at 40 mg/kg, ip administered every 24 hrs for 72 hrs; type: functional, organism-based
BNL CL.2 [23] = test: Upregulation of OAS1 mRNA expression in mouse […] cells; type: functional, cell-based
BNL CL.2 [24] = test: Effect on KEAP1 protein level in mouse BNL CL.2 cells assessed as no change in level at 40 uM measured upto 24 hrs; type: functional, cell-based; details: filed as activator
BNL CL.2 [25] = test: Upregulation of DZANK1 mRNA expression in mouse […] cells; type: functional, cell-based
[26] = molecular target: T1, Nuclear factor erythroid 2-related factor 2 (Mus musculus); test: Activation of flag-tagged NRF2 in mouse BNL CL.2 cells in presence of His-tagged KEAP1 C151S mutant at 40 uM for 24 hrs followed by treatment with MG132 for 4 hrs by immunoblot assay; type: cell-based; details: filed as activator
BNL CL.2 [27] = test: Effect of ROS generation in mouse BNL CL.2 NRF2 knockout cells assessed as increase in ROS level treated at 40 uM for 24 hrs (reference value: 10.6%); type: functional
BNL CL.2 [28] = test: Inhibition of autophagy in mouse BNL CL.2 cells assessed as decrease in LC3-II level incubated upto 80 uM for 24 hrs by immunoblotting analysis; type: functional, cell-based
Mus musculus [29] = test: Hepatoprotective activity against cisplatin induced liver injury […] mouse model assessed as reduction of ALT in serum at 40 mg/kg, ip administered every 24 hrs for 72 hrs; type: functional, organism-based
BNL CL.2 [30] = test: Effect on KEAP1 level in mouse BNL CL.2 cells assessed as no change treated at 40 uM for 24 hrs by immunoblot analysis; type: functional, cell-based
[31] = molecular target: T1, Nuclear factor erythroid 2-related factor 2 (Mus musculus); test: Activation of NRF2 in mouse BNL CL.2 cells treated for 8 to 24 hrs by immunoblot analysis; type: cell-based; details: filed as activator, dose 10-40 µM, time 8-24 hrs
BNL CL.2 [32] = test: Inhibition of autophagy in mouse BNL CL.2 cells assessed as suppression of autolysosome formation by measuring reduction in yellow puncta incubated upto 80 uM for 24 hrs by immuno fluoroscence analysis; type: functional, cell-based
[33] = molecular target: T2, Nuclear factor erythroid 2-related factor 2 (Homo sapiens) (UniProt Q16236); test: Activation of NRF2 in human MHCC97H cells treated for 8 to 24 hrs by immunoblot analysis; type: cell-based; details: filed as activator, dose 10-40 µM, time 8-24 hrs
T2 sequence (whole entry): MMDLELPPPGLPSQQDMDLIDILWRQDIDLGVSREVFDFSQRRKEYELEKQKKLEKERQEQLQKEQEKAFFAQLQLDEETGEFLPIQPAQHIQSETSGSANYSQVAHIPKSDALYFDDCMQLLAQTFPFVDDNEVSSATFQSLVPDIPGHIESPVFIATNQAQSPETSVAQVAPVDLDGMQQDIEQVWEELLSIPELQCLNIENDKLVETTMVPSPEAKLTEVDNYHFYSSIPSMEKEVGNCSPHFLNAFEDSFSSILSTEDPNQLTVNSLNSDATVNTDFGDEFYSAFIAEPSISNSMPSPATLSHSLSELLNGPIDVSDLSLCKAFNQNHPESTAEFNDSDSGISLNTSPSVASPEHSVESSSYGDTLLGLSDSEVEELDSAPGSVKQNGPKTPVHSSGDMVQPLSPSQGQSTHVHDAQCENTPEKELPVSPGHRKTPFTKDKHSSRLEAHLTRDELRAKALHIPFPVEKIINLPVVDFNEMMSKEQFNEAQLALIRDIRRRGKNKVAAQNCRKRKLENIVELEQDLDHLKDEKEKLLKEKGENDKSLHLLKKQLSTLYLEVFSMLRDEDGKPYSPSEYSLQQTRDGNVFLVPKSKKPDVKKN

BNL CL.2 [34] = test: Inhibition of autophagy in mouse BNL CL.2 cells assessed as suppression of autolysosome formation by measuring reduction in red puncta incubated upto 80 uM for 24 hrs by immuno fluoroscence analysis; type: functional, cell-based
BNL CL.2 [35] = test: Effect of ROS generation in cisplatin induced hepatotoxicity in mouse BNL CL.2 NRF2 cells assessed as increase in ROS level treated at 40 uM for 24 hrs; type: functional, cell-based
Mus musculus [36] = test: Hepatoprotective activity against cisplatin induced liver injury […] mouse model assessed as reduction of […] in liver tissue at 40 mg/kg, ip administered every 24 hrs for 72 hrs; type: functional, organism-based
[37] = molecular target: T2, Nuclear factor erythroid 2-related factor 2 (Homo sapiens); test: Activation of NRF2 in human HepG2 cells treated for 8 to 24 hrs by immunoblot analysis; type: cell-based; details: filed as activator, dose 10-40 µM, time 8-24 hrs
Mus musculus [38] = test: Hepatoprotective activity against cisplatin induced liver injury […] mouse model assessed as reduction of AST in serum at 40 mg/kg, ip administered every 24 hrs for 72 hrs; type: functional, organism-based
BNL CL.2 [39] = test: Effect of ROS generation in cisplatin induced hepatotoxicity in mouse BNL CL.2 NRF2 knockout cells assessed as increase in ROS level treated at 40 uM for 24 hrs; type: functional, cell-based
BNL CL.2 [40] = test: Upregulation of CCDC122 mRNA expression in mouse […] cells; type: functional, cell-based
Mus musculus [41] = test: Hepatoprotective activity against cisplatin induced liver injury […] mouse model assessed as no change in liver to body weight ratio at 40 mg/kg, ip administered every 24 hrs for 72 hrs; type: functional, organism-based
BNL CL.2 [42] = test: Upregulation of HIPK4 mRNA expression in mouse […] cells; type: functional, cell-based
[43] = molecular target: T1, Nuclear factor erythroid 2-related factor 2 (Mus musculus); test: Activation of NRF2 in mouse BNL CL.2 cells assessed as increase in Akr1c1 gene level upto 40 uM incubated upto 24 hrs by rt-qPCR analysis; type: cell-based; details: filed as activator
[44] = molecular target: Kelch-like ECH-associated protein 1/Nuclear factor erythroid 2-related factor 2 (Mus musculus) (UniProt Q60795+Q9Z2X8); test: Inhibition of in flag-tagged NRF2/wildtype His-tagged KEAP1 in mouse BNL CL.2 cells and protein-protein interaction at 40 uM for 24 hrs followed by treatment with MG132 for 4 hrs by immunoblot assay; type: cell-based; details: filed as activator
Sequence of Kelch-like ECH-associated protein 1/Nuclear factor erythroid 2-related factor 2 (Mus musculus) (Q9Z2X8 whole entry, looked up, one chain of several): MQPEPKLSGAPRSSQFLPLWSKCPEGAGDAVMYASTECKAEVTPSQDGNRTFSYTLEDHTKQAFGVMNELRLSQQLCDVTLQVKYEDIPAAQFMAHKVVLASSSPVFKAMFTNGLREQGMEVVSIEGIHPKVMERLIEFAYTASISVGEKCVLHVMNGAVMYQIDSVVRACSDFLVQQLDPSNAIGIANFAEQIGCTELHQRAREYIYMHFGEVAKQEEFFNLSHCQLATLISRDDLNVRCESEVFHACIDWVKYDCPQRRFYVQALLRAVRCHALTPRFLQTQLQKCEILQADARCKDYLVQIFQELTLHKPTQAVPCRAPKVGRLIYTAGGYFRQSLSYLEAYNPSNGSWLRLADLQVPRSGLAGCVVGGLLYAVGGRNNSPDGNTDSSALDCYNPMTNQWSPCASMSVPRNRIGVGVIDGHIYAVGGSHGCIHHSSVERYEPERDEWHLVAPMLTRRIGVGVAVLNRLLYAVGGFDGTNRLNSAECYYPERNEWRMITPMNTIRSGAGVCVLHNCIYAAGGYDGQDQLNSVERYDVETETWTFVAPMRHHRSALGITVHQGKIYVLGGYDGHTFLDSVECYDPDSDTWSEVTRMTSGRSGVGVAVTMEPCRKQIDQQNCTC

[45] = molecular target: T1, Nuclear factor erythroid 2-related factor 2 (Mus musculus); test: Ubiquitination activity in Flag-tagged NRF2 in mouse BNL CL.2 cells at 40 uM for 24 hrs followed by MG132 treatment for 4 hrs by immunoprecipitation assay; type: cell-based
BNL CL.2 [46] = test: Effect on KEAP1 level in mouse BNL CL.2 NRF2 knockout cells assessed as no change treated at 40 uM for 24 hrs by immunoblot analysis; type: functional, cell-based
BNL CL.2 [47] = test: Effect of ROS generation in mouse BNL CL.2 cells incubated at 10 uM for 24 hrs (reference value: 9.42%); type: functional

Activity [8]: Active
Activity [14]: Active
Activity [15]: Active
Activity [21]: Active
Activity [26]: Active
Activity [31]: Dose-Dependent Effect
Activity [33]: Dose-Dependent Effect
Activity [37]: Dose-Dependent Effect
Activity [43]: Active
inhibition [44]: Active
Activity [45]: inactive
Compound: O=C1C[C@@H](c2ccc(O)cc2)Oc2cc(O)ccc21 [LIQUIRTIGENIN]
Activity (BNL CL.2 [1]): 76%
Activity (BNL CL.2 [2]): Active
Activity (BNL CL.2 [3]): 91.9%
Activity (Mus musculus [4]): Active
Activity (BNL CL.2 [5]): Active
Activity (BNL CL.2 [6]): Active
Activity (BNL CL.2 [7]): Active
Activity (BNL CL.2 [9]): 4.52%
inhibition (BNL CL.2 [10]): Active
inhibition (BNL CL.2 [11]): Active
Activity (BNL CL.2 [12]): Active
Activity (BNL CL.2 [13]): 9.34%
Activity (BNL CL.2 [16]): 2.26%
Activity (Mus musculus [17]): Active
Activity (Mus musculus [18]): Active
Activity (Mus musculus [19]): Active
inhibition (BNL CL.2 [20]): Active
Activity (Mus musculus [22]): Active
Activity (BNL CL.2 [23]): Active
Activity (BNL CL.2 [24]): Active
Activity (BNL CL.2 [25]): Active
Activity (BNL CL.2 [27]): 8.04%
inhibition (BNL CL.2 [28]): Active
Activity (Mus musculus [29]): Active
Activity (BNL CL.2 [30]): Active
inhibition (BNL CL.2 [32]): Active
inhibition (BNL CL.2 [34]): Active
Activity (BNL CL.2 [35]): Active
Activity (Mus musculus [36]): Active
Activity (Mus musculus [38]): Active
Activity (BNL CL.2 [39]): Active
Activity (BNL CL.2 [40]): Active
Activity (Mus musculus [41]): Active
Activity (BNL CL.2 [42]): Active
Activity (BNL CL.2 [46]): Active
Activity (BNL CL.2 [47]): 9.8%
